Data taken from patent publication US11524966B1 (Valo Early Discovery, Inc., priority 2017, dated 2022).

biological target: T1, USP28 (His-tagged USP28-FL-mammalian) (Homo sapiens, UniProt Q96RU2); assay: Ubiquitin-Rhodamine 110 Assay for USP28 Activity, Example A-1(a); assay type: biochemical; conditions: Ubiquitin-Rhodamine 110 assay, Example A-1(a); read-out: USP28 A-1(a) IC50 range
T1 construct: Expression of USP28 (1-1077)-TEV-6*His (pTT5 vector); made in house; host or cells: Expi293f cells (pTT5 vector)
T1 sequence (Q96RU2 1-1077): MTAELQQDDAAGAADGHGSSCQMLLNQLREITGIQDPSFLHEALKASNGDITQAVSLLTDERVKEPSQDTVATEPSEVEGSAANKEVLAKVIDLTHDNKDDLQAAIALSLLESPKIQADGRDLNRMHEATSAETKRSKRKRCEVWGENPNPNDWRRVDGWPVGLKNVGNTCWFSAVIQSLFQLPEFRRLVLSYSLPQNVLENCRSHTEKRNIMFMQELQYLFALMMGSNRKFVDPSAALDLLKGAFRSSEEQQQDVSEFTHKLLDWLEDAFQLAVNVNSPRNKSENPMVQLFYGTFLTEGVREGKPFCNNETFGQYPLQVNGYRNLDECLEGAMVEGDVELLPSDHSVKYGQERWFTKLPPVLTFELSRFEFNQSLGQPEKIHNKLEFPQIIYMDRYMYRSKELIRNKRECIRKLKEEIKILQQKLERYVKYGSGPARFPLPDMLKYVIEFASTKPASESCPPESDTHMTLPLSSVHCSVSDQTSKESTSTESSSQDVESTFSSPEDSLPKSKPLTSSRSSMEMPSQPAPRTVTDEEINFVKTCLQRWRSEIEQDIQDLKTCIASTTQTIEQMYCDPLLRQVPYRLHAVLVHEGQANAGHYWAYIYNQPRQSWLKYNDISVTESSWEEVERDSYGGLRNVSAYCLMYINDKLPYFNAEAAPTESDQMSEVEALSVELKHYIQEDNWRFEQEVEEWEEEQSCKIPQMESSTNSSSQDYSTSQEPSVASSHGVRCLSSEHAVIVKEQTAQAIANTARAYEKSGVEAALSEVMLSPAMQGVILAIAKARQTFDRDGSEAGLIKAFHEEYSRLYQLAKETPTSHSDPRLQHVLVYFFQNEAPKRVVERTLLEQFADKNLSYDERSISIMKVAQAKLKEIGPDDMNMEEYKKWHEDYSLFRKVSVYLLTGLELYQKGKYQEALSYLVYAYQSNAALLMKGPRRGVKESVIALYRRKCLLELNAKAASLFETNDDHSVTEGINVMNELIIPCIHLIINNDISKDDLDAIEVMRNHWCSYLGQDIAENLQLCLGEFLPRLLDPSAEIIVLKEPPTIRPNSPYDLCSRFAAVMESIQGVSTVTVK
Method: Example A-1(a): Biochemical Assay: Ubiquitin-Rhodamine 110 Assay for USP28 Activity
The assay was performed in a final volume of 9 μL in assay buffer containing 20 mM Tris-HCl (pH 8.0, (1M Tris-HCl, pH 8.0 solution; Corning 46-031-CM)), 3 mM BME (2-Mercaptoethanol; Sigma 63689-25ML-F), 0.03% BGG (0.22 μM filtered, Sigma, G7516-25G), and 0.01% Triton X-100 (Sigma, T9284-10L). Nanoliter quantities of 10-point, 3-fold serial dilution in DMSO was pre-dispensed into 1536 assay plates (Corning, #3724BC) for a final test concentration of 25 μM to 1.3 nM, top to lowest dose, respectively. Enzyme USP28, construct His-tagged USP28-FL-mammalian, (protein expression and purification procedure described below). Concentration and incubation times were optimized for the maximal signal-to-background while maintaining initial velocity conditions at a fixed substrate concentration. The final concentration of the enzyme in the assay was 75 μM. Final substrate (Ub-Rh110; Ubiquitin-Rhodamine 110, UbiQ-126) concentration was 25 nM with [Ub-Rh110]<<Km. 3 μL of 2× enzyme was added to assay plates (pre-stamped with compound) preincubated with […] for 30 minutes and then 3 μL of 2×Ub-Rh110 was added to assay plates. Plates were incubated for 45 minutes at room temperature before addition of 3 μL of stop solution (final concentration of 10 mM citric acid (Sigma, 251275-500G)). Fluorescence was read on the Envision (Excitation at 485 nm and Emission at 535 nm; Perkin Elmer) or on the PheraSTAR (Excitation at 485 nm and Emission at 535 nm; BMG Labtech).
Procedure for the Protein Expression and Purification for Construct His-Tagged USP28-FL-Mammalian
Expression of USP28 (1-1077)-TEV-6*His (pTT5 vector) was carried out in Expi293f cells (sequence derived from uniprot ID: Q96RU2-1). Cells were re-suspended in lysis buffer B 50 mM Bicine, pH 8.0, 20 mM NaCl, 5% glycerol, 0.1% CHAPS, 5 mM β-ME, 1 mM PMSF, 1 ug/ml Leupeptin, 1 ug/ml Pepstatin) and lysed by sonication. Insoluble material was removed by centrifugation and the supernatant was loaded onto a Ni-NTA column (GE Healthcare) equilibrated with Ni Buffer A (50 mM Bicine, pH 8.0, 20 mM NaCl, 5% glycerol, 0.1% CHAPS, 5 mM β-ME.) and washed with Ni Buffer A+20 mM imidazole until A280 reached baseline. The protein was eluted with Ni Buffer B (50 mM Bicine, pH 8.0, 20 mM NaCl, 5% glycerol, 0.1% CHAPS, 5 mM β-ME, 300 mM imidazole.). The protein was further purified using a Superdex™ 200 10/300 GL column (GE Healthcare) equilibrated with 50 mM Bicine, pH 8.0, 20 mM NaCl, 5% glycerol, 0.1% CHAPS, 5 mM β-ME. The protein was concentrated to 2.5 mg ml^−1, flash-frozen in liquid N2 and stored at −80° C.
For assay formats Example A-1(a), A-1(b), and A-2, data were reported as percent inhibition compared with control wells based on the following equation: % inh=1−((FLU−AveLow)/(AveHigh−AveLow)) where FLU=measured Fluorescence, AveLow=average Fluorescence of no enzyme control (n=16), and AveHigh=average Fluorescence of DMSO control (n=16). IC50 values were determined by curve fitting of the standard 4 parameter logistic fitting algorithm included in the Activity Base software package: IDBS XE Designer Model 205. Data is fitted using the Levenburg Marquardt algorithm.

`Cc1ccc2c(N)c(C(=O)N[C@H]3CCc4nc(N5CCN[C@H](C(F)F)C5)ccc4C3)sc2n1` [Example 374, 3-amino-N-[(6S)-2-[(3S)-3-(difluoromethyl)piperazin-1-yl]-5,6,7,8-tetrahydroquinolin-6-yl]-6-methylthieno[2,3-b]pyridine-2-carboxamide] and `CN[C@H]1CN(c2ccc3c(n2)CC[C@H](NC(=O)c2sc4nc(C)ccc4c2N)C3)C[C@@H]1C(F)F` [Example 376, 3-amino-N-[(6S)-2-[(3S,4R)-3-(difluoromethyl)-4-(methylamino)pyrrolidin-1-yl]-5,6,7,8-tetrahydroquinolin-6-yl]-6-methylthieno[2,3-b]pyridine-2-carboxamide] fall in the same range of IC50: 50 to 200 nM for the first, 50 to 200 nM for the second.

First: CCO[C@H]1CN(c2cc3c(cn2)C[C@@H](NC(=O)c2sc4nc(C)ccc4c2N)CO3)C[C@@H]1N [Example 180, 3-amino-N-[(3R)-7-[(3S,4S)-3-amino-4-ethoxypyrrolidin-1-yl]-2H,3H,4H-pyrano[3,2-c]pyridin-3-yl]-6-methylthieno[2,3-b]pyridine-2-carboxamide]
Second: COCCO[C@@H]1CN(c2ccc3c(n2)CC[C@H](NC(=O)c2sc4nc(C)ccc4c2N)C3)C[C@H]1N (single isomer, unassigned) [Example 28-2]
The IC50 of the first is lower: 1 to 50 nM for the first, 200 to 2000 nM for the second. The first is the more potent here.

Compared with `Cc1ccc2c(N)c(C(=O)N[C@H]3CCc4nc(N5C6CC(N)CC5CS(=O)(=O)C6)ccc4C3)sc2n1` (stereo partly drawn) [Example 429, 3-amino-N-[(6S)-2-{7-amino-3,3-dioxo-3λ^6-thia-9-azabicyclo[3.3.1]nonan-9-yl}-5,6,7,8-tetrahydroquinolin-6-yl]-6-methylthieno[2,3-b]pyridine-2-carboxamide], `Cc1ccc2c(N)c(C(=O)N[C@H]3CCc4nc(N5CC[C@]6(C5)OCC[C@H]6N)ccc4C3)sc2n1` [Example 408, 3-amino-N-[(6S)-2-[(4R,5R)-4-amino-1-oxa-7-azaspiro[4.4]nonan-7-yl]-5,6,7,8-tetrahydroquinolin-6-yl]-6-methylthieno[2,3-b]pyridine-2-carboxamide] is higher in IC50: 1 to 50 nM for the first, 50 to 200 nM for the second. The first is the more potent here.

`Cc1ccc2c(N)c(C(=O)N[C@H]3COc4cc(N5C[C@@H](N)[C@@H]6OCC[C@@H]65)ccc4C3)sc2n1` [Example 425, N-[(3R)-7-[(3aS,6R,6aS)-6-amino-hexahydro-2H-furo[3,2-b]pyrrol-4-yl]-3,4-dihydro-2H-1-benzopyran-3-yl]-3-amino-6-methylthieno[2,3-b]pyridine-2-carboxamide] and `Cc1ccc2c(N)c(C(=O)N[C@H]3COc4cc(N5C[C@@H](N)[C@@]6(CCOC6)C5)ccc4C3)sc2n1` [Example 433, 3-amino-N-[(3R)-7-[(5R,9S)-9-amino-2-oxa-7-azaspiro[4.4]nonan-7-yl]-3,4-dihydro-2H-1-benzopyran-3-yl]-6-methylthieno[2,3-b]pyridine-2-carboxamide] fall in the same range of IC50: 1 to 50 nM for the first, 1 to 50 nM for the second.

`CCn1ccc2cc(C(=O)N[C@H]3CCc4nc(N5C[C@H](C(F)F)[C@@H](N)C5)ccc4C3)cnc21` [Example 370, N-[(6S)-2-[(3R,4S)-3-amino-4-(difluoromethyl)pyrrolidin-1-yl]-5,6,7,8-tetrahydroquinolin-6-yl]-1-ethyl-1H-pyrrolo[2,3-b]pyridine-5-carboxamide] and `CCn1ccc2cc(C(=O)N[C@H]3CCc4nc(N5C[C@@H](N)[C@H](C(F)(F)F)C5)ccc4C3)cnc21` [Example 422, N-[(6S)-2-[(3S,4R)-3-amino-4-(trifluoromethyl)pyrrolidin-1-yl]-5,6,7,8-tetrahydroquinolin-6-yl]-1-ethyl-1H-pyrrolo[2,3-b]pyridine-5-carboxamide] fall in the same range of IC50: 200 to 2000 nM for the first, 200 to 2000 nM for the second.

First: Cc1ccc2c(N)c(C(=O)N[C@@H]3CCc4cc(N5CCNCC5)ncc4C3)sc2n1 (single isomer, unassigned) [Example 32-2]
Second: Cc1ccc2c(N)c(C(=O)N[C@H]3CCc4nc(N5CC[C@](N)(CO)C5)ccc4C3)sc2n1 [Example 386, 3-amino-N-[(6S)-2-[(3R)-3-amino-3-(hydroxymethyl)pyrrolidin-1-yl]-5,6,7,8-tetrahydroquinolin-6-yl]-6-methylthieno[2,3-b]pyridine-2-carboxamide]
The IC50 of the first is higher: 200 to 2000 nM for the first, 50 to 200 nM for the second.

`Cc1cc(C)c2c(N)c(C(=O)N[C@H]3CCc4nc(N5C[C@H](OC(C)C)[C@@H](N)C5)ncc4C3)sc2n1` (single isomer, unassigned) [Example 31-1] and `Cc1ccc2c(N)c(C(=O)N[C@H]3CCc4nc(N5C[C@H](CF)[C@@H](N)C5)ccc4C3)sc2n1` [Example 384, 3-amino-N-[(6S)-2-[(3R,4S)-3-amino-4-(fluoromethyl)pyrrolidin-1-yl]-5,6,7,8-tetrahydroquinolin-6-yl]-6-methylthieno[2,3-b]pyridine-2-carboxamide] fall in the same range of IC50: 50 to 200 nM for the first, 50 to 200 nM for the second.

Compared with `Cc1ccc2c(N)c(C(=O)N[C@H]3CCc4nc(N5CC[C@]6(C5)OCC[C@@H]6N)ccc4C3)sc2n1` [Example 406, 3-amino-N-[(6S)-2-[(4S,5R)-4-amino-1-oxa-7-azaspiro[4.4]nonan-7-yl]-5,6,7,8-tetrahydroquinolin-6-yl]-6-methylthieno[2,3-b]pyridine-2-carboxamide], `Cc1ccc2c(N)c(C(=O)N[C@H]3CCc4nc(N5C[C@H]6COC[C@@]6(N)C5)ccc4C3)sc2n1` [Example 395, N-[(6S)-2-[(3aS,6aR)-3a-amino-hexahydro-1H-furo[3,4-c]pyrrol-5-yl]-5,6,7,8-tetrahydroquinolin-6-yl]-3-amino-6-methylthieno[2,3-b]pyridine-2-carboxamide] is lower in IC50: 200 to 2000 nM for the first, 50 to 200 nM for the second.

`CO[C@@]1(C)CN(c2ccc3c(n2)CC[C@H](NC(=O)c2sc4nc(C)ccc4c2N)C3)C[C@H]1N` [Example 428, 3-amino-N-[(6S)-2-[(3S,4R)-4-amino-3-methoxy-3-methylpyrrolidin-1-yl]-5,6,7,8-tetrahydroquinolin-6-yl]-6-methylthieno[2,3-b]pyridine-2-carboxamide] and `CN[C@@H]1CN(c2ccc3c(n2)CC[C@H](NC(=O)c2sc4nc(C)ccc4c2N)C3)C[C@H]1COC` (single isomer, unassigned) [Example 26-2] fall in the same range of IC50: 50 to 200 nM for the first, 50 to 200 nM for the second.
